The results in this text go back to ChEMBL document CHEMBL1127646, “Mechanism-based isocoumarin inhibitors for blood coagulation serine proteases. Effect of the 7-substituent in 7-amino-4-chloro-3-(isothioureidoalkoxy)isocoumarins on inhibitory and anticoagulant potency” (J Med Chem, 1994).

One may read the half-life as how long it takes for the measured level to halve. Read a low half-life as rapid decline.

Series [1] is described as follows: Hydrolysis half life (t1/2). Type of series: ADME.
Series [2] deals with Coagulation factor IX (Homo sapiens) (UniProt P00740). Description: Inhibition of porcine factor IXa at 8.3-82 uM. The settings on record: Sus scrofa, target entry is the homologue from another species.
The target in series [3] is T1, Coagulation factor VII (Homo sapiens) (UniProt P08709).
T1 sequence (whole entry): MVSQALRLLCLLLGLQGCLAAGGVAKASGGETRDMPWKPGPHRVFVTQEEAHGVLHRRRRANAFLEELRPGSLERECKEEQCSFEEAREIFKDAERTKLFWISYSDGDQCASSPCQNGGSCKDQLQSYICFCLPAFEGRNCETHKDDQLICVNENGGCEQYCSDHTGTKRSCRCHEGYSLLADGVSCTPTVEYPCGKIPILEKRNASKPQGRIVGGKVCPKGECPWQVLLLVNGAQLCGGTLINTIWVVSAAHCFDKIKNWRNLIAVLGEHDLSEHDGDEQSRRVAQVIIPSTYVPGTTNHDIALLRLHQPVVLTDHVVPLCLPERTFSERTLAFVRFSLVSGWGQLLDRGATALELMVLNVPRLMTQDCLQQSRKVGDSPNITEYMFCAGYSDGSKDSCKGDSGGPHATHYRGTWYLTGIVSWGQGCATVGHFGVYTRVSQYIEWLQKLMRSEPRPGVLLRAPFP
The series can be described thus: Inhibition of human coagulation factor VII at 7.2-44 uM.

Series [4] in a line: Anticoagulant activity was determined in Ortho-activated thrombofax (APTT) assay at a dose 31 uM in human dead plasma. It counts as functional.
A short description of series [5]: Anticoagulant activity was determined in Ortho-activated thrombofax (APTT) assay at a dose 9.4 uM in human dead plasma. Type of series: functional.
The nature of series [6]: Anticoagulant activity was determined in Ortho-activated thrombofax (APTT) assay at a dose 32 uM in pig plasma. It counts as functional, Sus scrofa.
Series [7] has as its target T2, Coagulation factor III (Sus scrofa) (UniProt Q6RCS8).
T2 sequence (whole entry): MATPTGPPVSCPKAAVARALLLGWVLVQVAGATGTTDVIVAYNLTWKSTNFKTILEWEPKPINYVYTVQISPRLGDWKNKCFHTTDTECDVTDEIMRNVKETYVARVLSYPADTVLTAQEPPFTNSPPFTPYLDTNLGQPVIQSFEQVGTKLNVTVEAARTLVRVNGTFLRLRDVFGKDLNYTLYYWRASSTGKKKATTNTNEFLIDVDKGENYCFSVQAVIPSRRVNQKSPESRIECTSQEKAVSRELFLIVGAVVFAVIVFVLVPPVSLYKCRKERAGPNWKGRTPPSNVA
The series can be described thus: Anticoagulant activity in PT assay at a dose 32 uM.

Series [8] concerns the target Prothrombin (Homo sapiens) (UniProt P00734). The series can be described thus: Inhibition of human thrombin (inhibitor concentration 1.2-54 uM).
In series [9] the target is Prothrombin (Bos taurus) (UniProt P00735). Description: Inhibition of bovine thrombin (inhibitor concentration 1.2-54 uM).
Series [10] concerns the target Coagulation factor X (Homo sapiens) (UniProt P00742). The series can be described thus: Inhibition of human factor Xa (inhibitor concentration were 3.6-44 uM).
In series [11] the target is Coagulation factor XI (Homo sapiens) (UniProt P03951). The series can be described thus: Compound was evaluated for inhibition of enzyme human coagulation factor XI (inhibitor concentration were 0.7-0.8 uM).
Series [12] concerns the target T3, Coagulation factor XII (Homo sapiens) (UniProt P00748).
T3 sequence (whole entry): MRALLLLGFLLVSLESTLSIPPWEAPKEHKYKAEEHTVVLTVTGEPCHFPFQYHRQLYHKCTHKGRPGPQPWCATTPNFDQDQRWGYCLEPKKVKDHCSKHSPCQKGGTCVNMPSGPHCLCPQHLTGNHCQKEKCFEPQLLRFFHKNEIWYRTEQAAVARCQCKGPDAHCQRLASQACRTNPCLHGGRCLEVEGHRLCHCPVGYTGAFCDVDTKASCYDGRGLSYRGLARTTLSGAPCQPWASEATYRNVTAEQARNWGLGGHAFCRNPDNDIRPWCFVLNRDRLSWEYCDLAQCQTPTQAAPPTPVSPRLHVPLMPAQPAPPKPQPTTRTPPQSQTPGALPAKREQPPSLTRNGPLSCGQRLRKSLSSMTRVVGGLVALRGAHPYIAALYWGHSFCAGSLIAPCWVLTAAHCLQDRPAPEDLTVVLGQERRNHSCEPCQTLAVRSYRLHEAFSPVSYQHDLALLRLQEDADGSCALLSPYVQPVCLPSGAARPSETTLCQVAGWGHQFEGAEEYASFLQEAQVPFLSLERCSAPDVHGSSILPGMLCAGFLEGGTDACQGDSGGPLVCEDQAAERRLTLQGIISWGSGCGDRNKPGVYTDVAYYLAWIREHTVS
The series can be described thus: Inhibition of human coagulation factor XII (inhibitor concentration were 3.6-4.9 uM).

Series [13] concerns the target T2, Coagulation factor III (Sus scrofa). The series can be described thus: Anticoagulant activity in PT assay at a dose of 32 uM.
Series [14] can be described thus: Anticoagulant activity was determined in Ortho-activated thrombofax (APTT) assay at a dose 16 uM in pig plasma. Type of series: functional, Sus scrofa.
In series [15] the target is T2, Coagulation factor III (Sus scrofa). The series can be described thus: Anticoagulant activity in PT assay at a dose 16 uM.
Series [16] is described as follows: Anticoagulant activity was determined in Ortho-activated thrombofax (APTT) assay at a dose 32 uM in human dead plasma. It counts as functional.
For series [17], the target named is Tissue factor (Homo sapiens) (UniProt P13726). The series can be described thus: Anticoagulant activity in PT assay at a dose of 31 uM.
Sequence of Tissue factor (Homo sapiens) (P13726 whole entry): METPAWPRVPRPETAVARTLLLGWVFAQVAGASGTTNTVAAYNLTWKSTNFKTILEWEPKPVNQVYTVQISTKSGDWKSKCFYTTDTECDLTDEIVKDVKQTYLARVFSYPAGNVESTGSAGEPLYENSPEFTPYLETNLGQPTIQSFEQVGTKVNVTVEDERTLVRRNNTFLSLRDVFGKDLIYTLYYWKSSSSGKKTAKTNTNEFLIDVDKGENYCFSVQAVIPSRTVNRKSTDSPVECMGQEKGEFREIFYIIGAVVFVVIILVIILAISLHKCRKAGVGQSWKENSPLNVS

Sequence of Coagulation factor XI (Homo sapiens) (P03951 19-387 limits assumed): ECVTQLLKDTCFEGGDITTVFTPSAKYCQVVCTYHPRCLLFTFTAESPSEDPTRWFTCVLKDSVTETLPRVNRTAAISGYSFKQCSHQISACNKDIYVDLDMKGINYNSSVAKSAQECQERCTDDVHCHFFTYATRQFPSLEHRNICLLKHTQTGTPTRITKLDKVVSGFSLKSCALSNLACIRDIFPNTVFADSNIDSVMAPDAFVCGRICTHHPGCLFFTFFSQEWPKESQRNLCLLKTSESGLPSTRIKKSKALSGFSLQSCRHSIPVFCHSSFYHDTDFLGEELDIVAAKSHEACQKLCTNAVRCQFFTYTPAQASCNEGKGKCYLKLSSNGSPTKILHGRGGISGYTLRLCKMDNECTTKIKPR
Sequence of Coagulation factor XI (Homo sapiens) (P03951 388-625 limits assumed): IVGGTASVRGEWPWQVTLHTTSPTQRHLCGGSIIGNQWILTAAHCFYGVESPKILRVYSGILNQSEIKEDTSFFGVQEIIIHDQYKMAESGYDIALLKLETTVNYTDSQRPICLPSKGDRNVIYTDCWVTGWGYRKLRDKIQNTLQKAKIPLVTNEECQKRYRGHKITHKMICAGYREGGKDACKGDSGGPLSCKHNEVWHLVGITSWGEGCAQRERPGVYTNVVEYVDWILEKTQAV
Sequence of Coagulation factor X (Homo sapiens) (P00742 41-179 limits assumed): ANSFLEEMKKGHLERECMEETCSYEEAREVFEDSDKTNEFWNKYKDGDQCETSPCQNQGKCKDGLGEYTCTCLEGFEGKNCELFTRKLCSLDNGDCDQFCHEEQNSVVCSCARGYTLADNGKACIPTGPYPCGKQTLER
Sequence of Coagulation factor X (Homo sapiens) (P00742 235-488 limits assumed): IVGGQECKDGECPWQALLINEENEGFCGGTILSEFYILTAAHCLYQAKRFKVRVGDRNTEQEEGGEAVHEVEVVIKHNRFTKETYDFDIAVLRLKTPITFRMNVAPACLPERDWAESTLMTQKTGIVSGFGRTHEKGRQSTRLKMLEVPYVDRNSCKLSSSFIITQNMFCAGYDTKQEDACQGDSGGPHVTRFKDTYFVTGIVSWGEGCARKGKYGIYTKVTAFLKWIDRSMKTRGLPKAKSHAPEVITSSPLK

With `C[C@H](NC(=O)Nc1ccc2c(Cl)c(OCCSC(=N)N)oc(=O)c2c1)c1ccccc1`, the half-life in series [1] was 0.933 h. Besides, the K obs / 1 in series [2] worked out at 3980 M⁻¹ s⁻¹; in [3], 1830 M⁻¹ s⁻¹; in series [8], 21000 M⁻¹ s⁻¹; in series [9] it was 41300 M⁻¹ s⁻¹. Moreover, the values for the APTT in series [4], in [5] and in series [6] were 111.2 s, 57.6 s and over 120 s, respectively. The compound further gave a PT in series [7] of 30 s.
`N=C(N)SCCCOc1oc(=O)c2cc(N)ccc2c1Cl` returned a half-life in series [1] of 1.5 h. The K obs / 1 stood at 60 M⁻¹ s⁻¹ in series [10]; 80 M⁻¹ s⁻¹ in series [2]; 430 M⁻¹ s⁻¹ in series [3]; 22000 M⁻¹ s⁻¹ in series [11]; 6200 M⁻¹ s⁻¹ in [12]; 760 M⁻¹ s⁻¹ in series [8]. Moreover, the K obs / 1 in series [9] is 630 M⁻¹ s⁻¹.
Consider `N=C(N)SCCOc1oc(=O)c2cc(NC(=O)NCc3ccccc3)ccc2c1Cl`, for which the K obs / 1 in series [10] came to 2340 M⁻¹ s⁻¹; in series [2], 2320 M⁻¹ s⁻¹; in series [3] it was 1810 M⁻¹ s⁻¹; in series [11], 105000 M⁻¹ s⁻¹; in series [12], 45000 M⁻¹ s⁻¹; in series [8], 11700 M⁻¹ s⁻¹. In [9], this compound came in with a K obs / 1 of 16800 M⁻¹ s⁻¹. The APTT in series [4] was 115.4 s; in series [5], 60.1 s; in [6], over 120 s. This compound also returned a PT in series [7] of 31.1 s.
`CCOc1oc(=O)c2cc(NC(=N)N)ccc2c1Cl`: the K obs / 1 stood at 11000 M⁻¹ s⁻¹ in series [10]; 2850 M⁻¹ s⁻¹ in [2]; 2200 M⁻¹ s⁻¹ in series [3]; 60000 M⁻¹ s⁻¹ in series [11]; 22000 M⁻¹ s⁻¹ in [12]; 55000 M⁻¹ s⁻¹ in series [9].
Regarding `C[C@@H](NC(=O)Nc1ccc2c(Cl)c(OCCSC(=N)N)oc(=O)c2c1)c1ccccc1`, the half-life in series [1] is 1.03 h. In series [6], the APTT is given as over 120 s. Further, in series [13], the PT was found to be 26.2 s. The K obs / 1 in series [8] was determined as 12000 M⁻¹ s⁻¹; in series [9], 29500 M⁻¹ s⁻¹.
The compound `N=C(N)SCCOc1oc(=O)c2cc(NC(=O)Nc3ccccc3)ccc2c1Cl` gave a half-life in [1] of 1.8 h. For the same compound, the K obs / 1 in series [10] was 4740 M⁻¹ s⁻¹; in series [2] it was 1790 M⁻¹ s⁻¹; in series [3], 3140 M⁻¹ s⁻¹; in [11], 104000 M⁻¹ s⁻¹; in [12], 50000 M⁻¹ s⁻¹; in [8], 22400 M⁻¹ s⁻¹. Moreover, the K obs / 1 in series [9] worked out at 25000 M⁻¹ s⁻¹. Besides, the APTT is 87.3 s in series [4], 47.7 s in series [5] and over 120 s in series [14]. Moreover, the PT in [15] was 28.5 s; in series [7], 58.3 s.
`N=C(N)SCCCOc1oc(=O)c2cc(NC(=O)Nc3ccccc3)ccc2c1Cl`: in [1], the half-life turned out to be 2.47 h. For the same compound, the K obs / 1 in series [10] was 50 M⁻¹ s⁻¹; in series [2], 110 M⁻¹ s⁻¹; in [3] it was 720 M⁻¹ s⁻¹; in [12], 7720 M⁻¹ s⁻¹; in series [8], 1840 M⁻¹ s⁻¹; in [9] it was 970 M⁻¹ s⁻¹.
Regarding `N=C(N)SCCOc1oc(=O)c2cc(NC(=O)[C@@H](N)Cc3ccccc3)ccc2c1Cl`, in series [1], the half-life came to 0.3 h. For the same compound, the K obs / 1 in series [10] is 3070 M⁻¹ s⁻¹; in series [12], 82000 M⁻¹ s⁻¹; in [8], 3070 M⁻¹ s⁻¹; in series [9] it was 4240 M⁻¹ s⁻¹.
Turning to `N=C(N)SCCCOc1oc(=O)c2ccccc2c1Cl`, the K obs / 1 in series [2] is 90 M⁻¹ s⁻¹; in series [3] it was 450 M⁻¹ s⁻¹; in series [11], 47000 M⁻¹ s⁻¹; in series [12], 27000 M⁻¹ s⁻¹; in series [9], 1400 M⁻¹ s⁻¹.
For `N=C(N)SCCOc1oc(=O)c2cc(NC(=O)[C@H](N)Cc3ccccc3)ccc2c1Cl`, the half-life in [1] worked out at 0.35 h. Besides, the K obs / 1 in series [10] was determined as 3770 M⁻¹ s⁻¹; in series [2] it was 1590 M⁻¹ s⁻¹; in series [3], 4010 M⁻¹ s⁻¹; in series [12], 107000 M⁻¹ s⁻¹; in series [8], 1340 M⁻¹ s⁻¹; in series [9] it was 1280 M⁻¹ s⁻¹.
In the case of `N=C(N)SCCOc1oc(=O)c2cc(NC(=O)CCc3ccccc3)ccc2c1Cl`, in [1], the half-life was determined as 0.65 h. For the same compound, the APTT in series [4] turned out to be 76.2 s; in [16], 140 s; in [5], 52.4 s. Further, the PT in series [17] was 24.4 s. Also, the K obs / 1 in [8] was 2150 M⁻¹ s⁻¹.
Take `O=c1oc(Cl)c(Cl)c2ccccc12`: the K obs / 1 in series [2] was 10 M⁻¹ s⁻¹; in series [3], 31 M⁻¹ s⁻¹; in series [12], 64 M⁻¹ s⁻¹; in series [8] it was 10 M⁻¹ s⁻¹; in series [9], 25 M⁻¹ s⁻¹.
For `CC(=O)CCC(=O)Nc1ccc2c(Cl)c(OCCSC(=N)N)oc(=O)c2c1`, the half-life in series [1] was found to be 0.467 h. Moreover, the APTT in series [4] was over 140 s. The same compound registered a PT in series [17] of 42.5 s. Besides, the K obs / 1 in series [8] came to 1770 M⁻¹ s⁻¹.
For `N=C(N)SCCOc1oc(=O)c2cc(NC(=O)NC(c3ccccc3)c3ccccc3)ccc2c1Cl` the same measures were 2.8 h, 121 s, 18.4 s and 7050 M⁻¹ s⁻¹.
With `N=C(N)SCCOc1oc(=O)c2cc(NC(=O)Cc3ccccc3)ccc2c1Cl`, the K obs / 1 in series [10] is 3630 M⁻¹ s⁻¹; in [2] it was 2620 M⁻¹ s⁻¹; in series [3], 1100 M⁻¹ s⁻¹; in [12], 59000 M⁻¹ s⁻¹; in series [8], 6730 M⁻¹ s⁻¹; in series [9] it was 15800 M⁻¹ s⁻¹.
As for `N=C(N)SCCCOc1oc(=O)c2cc(NC(=O)Cc3ccccc3)ccc2c1Cl`, the half-life in series [1] amounted to 1.02 h. Moreover, the K obs / 1 in series [10], in series [2], in series [3], in series [11], in series [12] and in series [8] was 610 M⁻¹ s⁻¹ throughout. In addition, the K obs / 1 in [9] was 600 M⁻¹ s⁻¹.
